The structures appear in SMILES notation. Like-named read-outs stand apart in the source and are kept apart here.

From patent publication US8404708B2, “Dual NK1/NK3 receptor antagonists” (Hoffmann-La Roche Inc., priority 2004, dated 2013) come the findings set out here.

One test addresses human NK1 receptor (Homo sapiens, UniProt P25103). Kind of test: NK1 receptor binding, [3H]substance P displacement, CHO cell membranes.
For test [1], the target named is T1, Recombinant human NK3 (hNK3) receptor (Homo sapiens, UniProt P29371).
T1 construct: expressed in transfected cells
T1 sequence (P29371 1-465): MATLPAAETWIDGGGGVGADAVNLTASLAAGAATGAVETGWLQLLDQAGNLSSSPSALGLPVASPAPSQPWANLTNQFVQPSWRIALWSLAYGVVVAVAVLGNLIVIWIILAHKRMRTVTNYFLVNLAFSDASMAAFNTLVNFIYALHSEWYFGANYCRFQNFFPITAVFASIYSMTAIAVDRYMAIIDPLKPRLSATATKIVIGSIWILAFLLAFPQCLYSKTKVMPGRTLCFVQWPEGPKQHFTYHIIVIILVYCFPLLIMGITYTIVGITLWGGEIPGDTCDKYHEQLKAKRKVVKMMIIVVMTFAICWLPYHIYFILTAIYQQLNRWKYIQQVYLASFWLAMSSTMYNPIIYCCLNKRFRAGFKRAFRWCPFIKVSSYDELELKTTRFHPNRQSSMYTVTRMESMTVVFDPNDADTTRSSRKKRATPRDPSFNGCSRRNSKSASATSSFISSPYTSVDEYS
Kind of test: NK3 receptor binding, [3H]SR142801 displacement, membrane preparations. Summed up: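 Incubation ran 90 min at room temperature in 50 mM Tris-HCl pH 7.4 with 0.1% BSA, 4 mM MnCl2 and 1 μM phosphoramidon, using about 2.5 μg hNK3 membrane protein per well. Nonspecific binding was defined with 10 μM SB222200, and bound radioactivity was collected on PEI-soaked GF/C filters for scintillation counting.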

[2] abbreviates: first value of the cell NK1/NK3, read-out: pKi NK1 (converted).
[3] abbreviates: second value of the cell NK1/NK3, read-out: pKi NK3 (converted).
Where [4] appears, read: first value of the cell pKi NK1/NK3, human NK1 receptor, [3H]substance P.
Setting [5] is: second value of the cell pKi NK1/NK3, hNK3 receptor, [3H]SR142801.

Chain of human NK1 receptor (P25103 whole entry): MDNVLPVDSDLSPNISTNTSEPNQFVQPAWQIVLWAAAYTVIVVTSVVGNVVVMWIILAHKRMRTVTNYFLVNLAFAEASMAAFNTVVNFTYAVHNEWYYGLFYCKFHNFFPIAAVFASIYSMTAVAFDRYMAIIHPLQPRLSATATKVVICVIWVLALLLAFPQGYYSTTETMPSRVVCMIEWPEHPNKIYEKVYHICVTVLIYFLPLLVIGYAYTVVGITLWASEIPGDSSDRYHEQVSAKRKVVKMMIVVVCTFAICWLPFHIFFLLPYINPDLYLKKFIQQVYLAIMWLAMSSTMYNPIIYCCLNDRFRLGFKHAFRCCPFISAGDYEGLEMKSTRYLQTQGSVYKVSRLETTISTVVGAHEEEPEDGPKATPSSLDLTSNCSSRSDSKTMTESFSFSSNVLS

In the case of `CN(C(=O)C(C)(C)c1cc(C(F)(F)F)cc(C(F)(F)F)c1)c1cnc(N2C[C@H](O)C[C@H]2CO)cc1-c1ccc(F)cc1Cl` [Example 221, (2S,4R)-2-(3,5-Bis-trifluoromethyl-phenyl)-N-[4-(2-chloro-4-fluoro-phenyl)-6-(4-hydroxy-2-hydroxymethyl-pyrrolidin-1-yl)-pyridin-3-yl]-N-methyl-isobutyramide], the values for the Ki (at human NK1 receptor (setting [2]); in test [1] (setting [3])) were 0.933 nM and 5.25 nM, respectively.
Turning to `Cc1ccccc1-c1cc(N2C[C@H](O)C[C@H]2CO)ncc1N(C)C(=O)C(C)(C)c1cc(Cl)cc(OC(F)F)c1` [Example 37, (2S,4R)-2-(3-Chloro-5-difluoromethoxy-phenyl)-N-[6-(4-hydroxy-2-hydroxymethyl-pyrrolidin-1-yl)-4-o-tolyl-pyridin-3-yl]-N-methyl-isobutyramide], the Ki on human NK1 receptor (setting [4]) was 1.2 nM; in test [1] (setting [5]), 0.617 nM.
With `CN(C(=O)C(C)(C)c1cc(C(F)(F)F)cc(C(F)(F)F)c1)c1cnc(N2CCC[C@@H]2CO)cc1-c1ccccc1Cl` [Example 41, (R)-2-(3,5-Bis-trifluoromethyl-phenyl)-N-[4-(2-chloro-phenyl)-6-(2-hydroxymethyl-pyrrolidin-1-yl)-pyridin-3-yl]-N-methyl-isobutyramide], the Ki at human NK1 receptor (setting [4]) is 1.07 nM; in test [1] (setting [5]), 7.59 nM.
In the case of `COc1cc(Cl)cc(C(C)(C)C(=O)N(C)c2cnc(N3C[C@H](O)C[C@H]3CO)cc2-c2ccc(F)cc2C)c1` [Example 31, (2S,4R)-2-(3-Chloro-5-methoxy-phenyl)-N-[4-(4-fluoro-2-methyl-phenyl)-6-(4-hydroxy-2-hydroxymethyl-pyrrolidin-1-yl)-pyridin-3-yl]-N-methyl-isobutyramide], the values for the Ki (at human NK1 receptor (setting [4]); in test [1] (setting [5])) were 0.977 nM and 1.66 nM, respectively.
As to `C[C@H](O)CNc1cc(-c2ccccc2Br)c(N(C)C(=O)C(C)(C)c2cc(C(F)(F)F)cc(C(F)(F)F)c2)cn1` [Example 131, (S)-2-(3,5-Bis-trifluoromethyl-phenyl)-N-[4-(2-bromo-phenyl)-6-(2-hydroxy-propylamino)-pyridin-3-yl]-N-methyl-isobutyramide], the Ki on human NK1 receptor (setting [4]) is 1.07 nM; in test [1] (setting [5]), 4.27 nM.
Consider `CN(C(=O)C(C)(C)c1cc(C(F)(F)F)cc(C(F)(F)F)c1)c1cnc(N2C[C@H](O)C[C@H]2CO)cc1-c1ccccc1CO` [Example 225, (2S,4R)-2-(3,5-Bis-trifluoromethyl-phenyl)-N-[6-(4-hydroxy-2-hydroxymethyl-pyrrolidin-1-yl)-4-(2-hydroxymethyl-phenyl)-pyridin-3-yl]-N-methyl-isobutyramide], for which the Ki at human NK1 receptor (setting [2]) was 1.66 nM; in test [1] (setting [3]), 2.57 nM.
In the case of `CCN(CCO)c1cc(-c2ccc(F)cc2)c(N(C)C(=O)C(C)(C)c2cc(C(F)(F)F)cc(C(F)(F)F)c2)cn1` [Example 116, 2-(3,5-Bis-trifluoromethyl-phenyl)-N-[6-[ethyl-(2-hydroxy-ethyl)-amino]-4-(4-fluoro-phenyl)-pyridin-3-yl]-N-methyl-isobutyramide], the figures for the Ki (on human NK1 receptor (setting [4]); in test [1] (setting [5])) were 3.89 nM and 32.4 nM, respectively.
As for `CN(C(=O)C(C)(C)c1cc(C(F)(F)F)cc(C(F)(F)F)c1)c1cnc(N(CCO)CCO)cc1-c1ccc(F)cc1` [Example 88, N-[6-[Bis-(2-hydroxy-ethyl)-amino]-4-(4-fluoro-phenyl)-pyridin-3-yl]-2-(3,5-bis-trifluoromethyl-phenyl)-N-methyl-isobutyramide], the Ki on human NK1 receptor (setting [4]) is 1.35 nM; in test [1] (setting [5]) it was 9.33 nM.
Turning to `Cc1cc(F)ccc1-c1cc(N2[C@@H](CO)CC[C@@H]2CO)ncc1N(C)C(=O)C(C)(C)c1cc(C(F)(F)F)cc(C(F)(F)F)c1` [Example 199, (2R,5R)-N-[6-(2,5-Bis-hydroxymethyl-pyrrolidin-1-yl)-4-(4-fluoro-2-methyl-phenyl)-pyridin-3-yl]-2-(3,5-bis-trifluoromethyl-phenyl)-N-methyl-isobutyramide], the Ki at human NK1 receptor (setting [4]) is 2.51 nM; in test [1] (setting [5]), 15.5 nM.
On the same counts, the results for `CN(C(=O)C(C)(C)c1cc(C(F)(F)F)cc(C(F)(F)F)c1)c1cnc(N2CCC[C@H]2CN2CCCC2)cc1-c1ccccc1Cl` [Example 64, (S)-2-(3,5-Bis-trifluoromethyl-phenyl)-N-[4-(2-chloro-phenyl)-6-(−2-pyrrolidin-1-ylmethyl-pyrrolidin-1-yl)-pyridin-3-yl]-N-methyl-isobutyramide] are 1 nM and 2.88 nM.
On the same counts, the results for `Cc1ccccc1-c1cc(N2CCS(=O)(=O)CC2CO)ncc1N(C)C(=O)C(C)(C)c1cc(C(F)(F)F)cc(C(F)(F)F)c1` (racemic) [Example 178, (RS)-2-(3,5-Bis-trifluoromethyl-phenyl)-N-[6-(3-hydroxymethyl-1,1-dioxo-1λ^6-thiomorpholin-4-yl)-4-o-tolyl-pyridin-3-yl]-N-methyl-isobutyramide] are 0.933 nM and 3.47 nM.
Consider `Cc1cc(F)ccc1-c1cc(N2CCC[C@@H]2CO)ncc1N(C)C(=O)C(C)(C)c1cc(C(F)(F)F)cc(C(F)(F)F)c1` [Example 93, (R)-2-(3,5-Bis-trifluoromethyl-phenyl)-N-[4-(4-fluoro-2-methyl-phenyl)-6-(2-hydroxymethyl-pyrrolidin-1-yl)-pyridin-3-yl]-N-methyl-isobutyramide], for which the Ki on human NK1 receptor (setting [4]) is 1.12 nM; in test [1] (setting [5]), 7.41 nM.
As to `CN(C(=O)C(C)(C)c1cc(C(F)(F)F)cc(C(F)(F)F)c1)c1cnc(N2CC[C@H](O)[C@H]2CO)cc1-c1cccc(Cl)c1` [Example 269, (2R,3S)-2-(3,5-Bis-trifluoromethyl-phenyl)-N-[4-(3-chloro-phenyl)-6-(3-hydroxy-2-hydroxymethyl-pyrrolidin-1-yl)-pyridin-3-yl]-N-methyl-isobutyramide], the Ki on human NK1 receptor (setting [2]) was 1.86 nM; in test [1] (setting [3]), 3.55 nM.
As for `Cc1cc(F)ccc1-c1cc(N2C[C@H](O)C[C@@H]2CO)ncc1N(C)C(=O)C(C)(C)c1cc(C(F)(F)F)cc(C(F)(F)F)c1` [Example 258, (2R,4R)-2-(3,5-Bis-trifluoromethyl-phenyl)-N-[4-(4-fluoro-2-methyl-phenyl)-6-(4-hydroxy-2-hydroxymethyl-pyrrolidin-1-yl)-pyridin-3-yl]-N-methyl-isobutyramide], the Ki on human NK1 receptor (setting [2]) is 2 nM; in test [1] (setting [3]), 10 nM.
With `CN(C(=O)C(C)(C)c1cc(F)cc(C(F)(F)F)c1)c1cnc(N2C[C@H](O)C[C@H]2CO)cc1-c1ccccc1Cl` [Example 5, (2S,4R)-N-[4-(2-Chloro-phenyl)-6-(4-hydroxy-2-hydroxymethyl-pyrrolidin-1-yl)-pyridin-3-yl]-2-(3-fluoro-5-trifluoromethyl-phenyl)-N-methyl-isobutyramide], the Ki is 1.55 nM at human NK1 receptor (setting [4]) and 1.74 nM in test [1] (setting [5]).
In the case of `CN(C(=O)C(C)(C)c1cc(C(F)(F)F)cc(C(F)(F)F)c1)c1cnc(N2C[C@@H](O)C[C@H]2CO)cc1-c1ccc(F)cc1F` [Example 237, (2S,4S)-2-(3,5-Bis-trifluoromethyl-phenyl)-N-[4-(2,4-difluoro-phenyl)-6-(4-hydroxy-2-hydroxymethyl-pyrrolidin-1-yl)-pyridin-3-yl]-N-methyl-isobutyramide], the Ki on human NK1 receptor (setting [2]) is 1.02 nM; in test [1] (setting [3]) it was 7.76 nM.
In the case of `CN(C(=O)C(C)(C)c1cc(C(F)(F)F)cc(C(F)(F)F)c1)c1cnc(N2CCC(O)CC2)cc1-c1ccccc1Cl` [Example 51, 2-(3,5-bis-trifluoromethyl-phenyl)-N-[4′-(2-chloro-phenyl)-4-hydroxy-3,4,5,6-tetrahydro-2H-[1,2′]bipyridinyl-5′-yl]-N-methyl-isobutyramide], the Ki was 0.646 nM on human NK1 receptor (setting [4]) and 28.8 nM in test [1] (setting [5]).
For `CN(C(=O)C(C)(C)c1cc(C(F)(F)F)cc(C(F)(F)F)c1)c1cnc(N2CC[C@H](O)C[C@@H]2CO)cc1-c1ccccc1Cl` (racemic) [Example 189, (2RS,4SR)-2-(3,5-Bis-trifluoromethyl-phenyl)-N-[4′-(2-chloro-phenyl)-4-hydroxy-2-hydroxymethyl-3,4,5,6-tetrahydro-2H-[1,2′]bipyridinyl-5′-yl]-N-methyl-isobutyramide], in that order: 1.51 nM and 3.98 nM.
For `CN(CC(O)CO)c1cc(-c2ccccc2Cl)c(N(C)C(=O)C(C)(C)c2cc(C(F)(F)F)cc(C(F)(F)F)c2)cn1` (racemic) [Example 58, (RS)-2-(3,5-Bis-trifluoromethyl-phenyl)-N-{4-(2-chloro-phenyl)-6-[(2,3-dihydroxy-propyl)-methyl-amino]-pyridin-3-yl}-N-methyl-isobutyramide], in that order: 2.4 nM and 5.75 nM.
Turning to `CN(C(=O)C(C)(C)c1cc(C(F)(F)F)cc(C(F)(F)F)c1)c1cnc(N2C[C@H](O)C[C@H]2CO)cc1-c1cc(Cl)ccc1Cl` [Example 226, (2S,4R)-2-(3,5-Bis-trifluoromethyl-phenyl)-N-[4-(2,5-dichloro-phenyl)-6-(4-hydroxy-2-hydroxymethyl-pyrrolidin-1-yl)-pyridin-3-yl]-N-methyl-isobutyramide], the Ki at human NK1 receptor (setting [2]) is 7.76 nM; in test [1] (setting [3]) it was 16.6 nM.
